Test results: PMC7450057, “Enhancing intracellular accumulation and target engagement of PROTACs with reversible covalent chemistry” (Nature Communications, 2020)
Values joined by “and” are separate entries in the source; they are usually repeats but may differ in a detail not shown here. Equal entries are not always repeated.

Tests used:
BTK-NanoLuc fusion = target: T1, BTK-NanoLuc fusion (Homo sapiens, UniProt Q06187); test: NanoBRET BTK in-cell target engagement assay; format: cell-based; settings: for NanoBRET(%): Figure 3d, triplicates
T1 construct: host or cells: HEK 293T/17
Summary of the method: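 Tracer-displacement IC50 derived from background-corrected BRET ratio (450 nm donor, 610 nm acceptor) in live HEK293/T17 cells transfected with BTK-NanoLuc. Cells were exposed for 2 h at 37 °C to 1.0 µM tracer plus 5-fold serial dilutions of compound from 10 µM.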

BTK = BTK (Homo sapiens, UniProt Q06187); test: In vitro BTK kinase assay (PhosphoSens); format: biochemical; set-up: purchased SignalChem B10-10H-10
full-length BTK protein = target: T2, full-length BTK protein (Homo sapiens, UniProt Q06187); test: BTK binding assay (Kd, Eurofins DiscoverX)
T2 construct: Kd was measured using the full-length BTK protein by Eurofins DiscoverX; T7 phage fusion or DNA tag for qPCR (generic vendor protocol); purchased Eurofins DiscoverX
Summary of the method: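 Competition binding of DNA-tagged full-length BTK (T7 phage or HEK-293 produced) against immobilised ligand on blocked beads, with the remaining kinase quantified by qPCR. An 11-point 3-fold compound dilution was tested at 1% final DMSO. Kd came from a Hill fit with slope fixed at −1.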

Rec-1 = test: IC50 in MCL cell lines (Supplementary Table 2), Rec-1; settings: for Cell Viability (%): Rec-1 cells, replicate wells

T1 sequence (Q06187 whole entry, the tested form may be a part): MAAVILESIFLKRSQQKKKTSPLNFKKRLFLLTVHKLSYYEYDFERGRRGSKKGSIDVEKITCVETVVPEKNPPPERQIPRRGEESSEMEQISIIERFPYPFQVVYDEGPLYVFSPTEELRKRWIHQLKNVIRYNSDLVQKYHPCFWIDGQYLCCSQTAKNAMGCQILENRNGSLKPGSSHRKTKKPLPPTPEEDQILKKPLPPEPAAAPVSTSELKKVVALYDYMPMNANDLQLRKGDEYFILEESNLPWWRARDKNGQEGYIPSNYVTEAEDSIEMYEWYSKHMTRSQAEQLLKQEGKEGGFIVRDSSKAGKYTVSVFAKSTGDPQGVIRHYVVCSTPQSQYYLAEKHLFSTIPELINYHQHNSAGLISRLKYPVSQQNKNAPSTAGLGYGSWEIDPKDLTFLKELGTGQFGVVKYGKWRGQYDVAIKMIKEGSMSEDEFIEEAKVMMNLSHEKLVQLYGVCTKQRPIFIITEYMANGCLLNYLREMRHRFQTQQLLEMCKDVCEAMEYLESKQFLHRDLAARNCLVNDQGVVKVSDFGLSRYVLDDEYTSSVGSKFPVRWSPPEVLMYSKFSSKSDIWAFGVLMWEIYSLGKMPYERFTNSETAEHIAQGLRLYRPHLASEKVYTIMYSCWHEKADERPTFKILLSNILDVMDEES
T2 sequence (Q06187 whole entry, the tested form may be a part): as above
Sequence of BTK (Q06187 whole entry): as the sequence (Q06187 whole entry, the tested form may be a part) above

SMILES: CC(C)(C)C=C(C#N)C(=O)N1CCCC(n2nc(-c3ccc(Oc4ccccc4)cc3)c3c(N)ncnc32)C1 (stereo not drawn) [RC-Ctrl]
- NanoBRET(%) (BTK-NanoLuc fusion; 1.00E-05 M): 3.378% and 4.061% and 7.763%
- NanoBRET(%) (BTK-NanoLuc fusion; 1.60E-08 M): 68.6994% and 58.5265% and 79.8426%
- NanoBRET(%) (BTK-NanoLuc fusion; 2.00E-06 M): 7.973% and 4.415% and 10.8959%
- NanoBRET(%) (BTK-NanoLuc fusion; 3.20E-09 M): 72.0977% and 81.5236% and 73.9704%
- NanoBRET(%) (BTK-NanoLuc fusion; 8.00E-08 M): 48.5638% and 40.5056% and 47.7559%
- K′P,D (relative intracellular accumulation coefficient) (BTK-NanoLuc fusion; Kd (BTK)/IC50,TE (BTK)): 1.5 × 10^−1
- IC50 (BTK-NanoLuc fusion; experiment of Fig. 3d, read-out: BTK target engagement IC50): 47 nM
- IC50 (BTK; AssayQuant BTK assay kit, 2.5 nM BTK, 1 mM ATP, duplicates, read-out: BTK inhibition IC50): 2.2 nM
- activity at 2.56 pM (BTK; Supplementary Figure 5, drug concentration 2.56 pM, replicates, read-out: Inhibition(%)): 108%
- activity at 12.8 pM (BTK; Supplementary Figure 5, drug concentration 12.8 pM, replicates, read-out: Inhibition(%)): 105%
- activity at 64 pM (BTK; Supplementary Figure 5, drug concentration 64 pM, replicates, read-out: Inhibition(%)): 109%
- activity at 0.00032 µM (BTK; Supplementary Figure 5, drug concentration 320 pM, replicates, read-out: Inhibition(%)): 96.8%
- activity at 0.0016 µM (BTK; Supplementary Figure 5, drug concentration 1600 pM, replicates, read-out: Inhibition(%)): 64.1%
- activity at 0.008 µM (BTK; Supplementary Figure 5, drug concentration 8000 pM, replicates, read-out: Inhibition(%)): 25.5%
- activity at 0.04 µM (BTK; Supplementary Figure 5, drug concentration 40000 pM, replicates, read-out: Inhibition(%)): 4.68%
- activity at 0.2 µM (BTK; Supplementary Figure 5, drug concentration 200000 pM, replicates, read-out: Inhibition(%)): 1.89%
- activity at 1 µM (BTK; Supplementary Figure 5, drug concentration 1000000 pM, replicates, read-out: Inhibition(%)): 2.91%
- reduction of BTK inhibition activity compared with IRC-Ctrl (BTK; ratio of IC50 values): 7 folds
- Signal (full-length BTK protein; BTK_+DTT, compound concentration 0.00491 nM): 2.09E-05 and 2.12E-05
- Signal (full-length BTK protein; BTK_+DTT, compound concentration 0.0147 nM): 2.23E-05 and 2.05E-05
- Signal (full-length BTK protein; BTK_+DTT, compound concentration 0.0442 nM): 2.23E-05 and 2.20E-05
- Signal (full-length BTK protein; BTK_+DTT, compound concentration 0.133 nM): 2.05E-05
- Signal (full-length BTK protein; BTK_+DTT, compound concentration 0.398 nM): 2.13E-05 and 2.22E-05
- Signal (full-length BTK protein; BTK_+DTT, compound concentration 1.19 nM): 1.80E-05 and 1.97E-05
- Signal (full-length BTK protein; BTK_+DTT, compound concentration 3.58 nM): 1.78E-05 and 1.71E-05
- Signal (full-length BTK protein; BTK_+DTT, compound concentration 10.7 nM): 1.50E-05 and 1.39E-05
- Signal (full-length BTK protein; BTK_+DTT, compound concentration 32.2 nM): 7.62E-06 and 7.96E-06
- Signal (full-length BTK protein; BTK_+DTT, compound concentration 96.7 nM): 2.20E-06 and 2.08E-06
- Signal (full-length BTK protein; BTK_+DTT, compound concentration 290 nM): 4.82E-07 and 5.26E-07
- Signal (full-length BTK protein; BTK_-DTT, compound concentration 0.0152 nM): 1.69E-05 and 1.12E-05
- Signal (full-length BTK protein; BTK_-DTT, compound concentration 0.0457 nM): 1.66E-05 and 1.75E-05
- Signal (full-length BTK protein; BTK_-DTT, compound concentration 0.137 nM): 1.87E-05 and 1.52E-05
- Signal (full-length BTK protein; BTK_-DTT, compound concentration 0.412 nM): 1.34E-05 and 1.41E-05
- Signal (full-length BTK protein; BTK_-DTT, compound concentration 1.23 nM): 1.48E-05 and 1.35E-05
- Signal (full-length BTK protein; BTK_-DTT, compound concentration 3.7 nM): 1.31E-05 and 1.42E-05
- Signal (full-length BTK protein; BTK_-DTT, compound concentration 11.1 nM): 6.46E-06 and 6.66E-06
- Signal (full-length BTK protein; BTK_-DTT, compound concentration 33.3 nM): 2.78E-06 and 2.85E-06
- Signal (full-length BTK protein; BTK_-DTT, compound concentration 100 nM): 8.37E-07 and 7.44E-07
- Signal (full-length BTK protein; BTK_-DTT, compound concentration 300 nM): 2.56E-07 and 2.49E-07
- Kd (full-length BTK protein; full-length BTK, absence of DTT in the buffer, duplicates): 9.1 nM
- IC50 (Rec-1; Rec-1, triplicates): > 5 µM
- Cell Viability (%) (Rec-1; 1.25E-06 M): 84.1542% and 83.3085% and 82.8961%
- Cell Viability (%) (Rec-1; 1.56E-07 M): 92.1928% and 91.3082% and 92.4737%
- Cell Viability (%) (Rec-1; 2.50E-06 M): 79.0591% and 78.7184% and 77.0987%
- Cell Viability (%) (Rec-1; 3.13E-07 M): 90.2055% and 91.6728% and 91.1737%
- Cell Viability (%) (Rec-1; 5.00E-06 M): 67.2403% and 66.8996% and 66.3946%
- Cell Viability (%) (Rec-1; 6.25E-07 M): 86.0757% and 86.1055% and 87.7342%
- Cell Viability (%) (Rec-1; 7.81E-08 M): 88.6576% and 86.9542% and 93.923%
